Assay results from ChEMBL document CHEMBL4622833, “Bifunctional small molecule-oligonucleotide hybrid as microRNA inhibitor” (Bioorg Med Chem, 2020).
Activity calls are given as the source filed them. No cut-off for these calls is given here. Numbered stars: 1 amine (or outer) side, 2 acyl side, 3 side chain; on linkers, the order of the positions; unused ones are H or OH. Square brackets hold non-standard residues; d marks the D form. Peptide text beside a SMILES is read from it. * marks the point of attachment. X6 = O=C1Cc2ccc(OCc3cn(N([C@@H](CS)C(=O)[*:2])[*:1])nn3)cc2C(=O)N1O; X3 = O=C1Cc2ccc(OCc3cn(N(CC(=O)[*:2])[*:1])nn3)cc2C(=O)N1O; X4 = C[C@@H](O)[C@@H](C(=O)[*:2])N(n1cc(CN[*:3])nn1)[*:1]; X7 = O=C([C@H](CS)N(n1cc(CCCC(=O)[*:3])nn1)[*:1])[*:2]; X1 = O=C([C@H](CS)N(n1cc(CN[*:3])nn1)[*:1])[*:2]; X5 = C[C@@H](C(=O)[*:2])N(n1cc(CN[*:3])nn1)[*:1]; X8 = O=C(NCCOCCOCCN*)c1ccc2c(c1)C(=O)N(O)C2=O; X2 = O=C1c2ccc(C(=O)*)cc2C(=O)N1O

What was measured:
Type in all cases: nucleic-acid assay
[1] = system: Pre-miRNA-29b; assay: Inhibition of Dicer mediated [32P] pre-miRNA-29b-1 (unknown origin) maturation assessed as cleavage of pre-miRNA at 1 mM after 2.5 hrs by denaturating polyacrylamide gel electrophoresis
[2] = system: microRNA 21; assay: Inhibition of Dicer mediated [32P] pre-miRNA-21 (unknown origin) maturation assessed as cleavage of pre-miRNA at 1000 uM after 2.5 hrs by denaturating polyacrylamide gel electrophoresis
[3] = molecular target: microRNA 21; assay: Inhibition of Dicer mediated [32P] pre-miRNA-21 (unknown origin) maturation assessed as cleavage of pre-miRNA after 2.5 hrs by denaturating polyacrylamide gel electrophoresis
[4] = system: microRNA 21; assay: Inhibition of Dicer mediated [32P] pre-miRNA-21 (unknown origin) maturation assessed as cleavage of pre-miRNA at 10 uM after 2.5 hrs by denaturating polyacrylamide gel electrophoresis
[5] = system: microRNA 21; assay: Binding affinity to [32P]pre-miRNA-21(unknown origin) assessed as reduction in mobility by electrophoretic mobility shift assay
[6] = system: microRNA 21; assay: Inhibition of Dicer mediated [32P] pre-miRNA-21 (unknown origin) maturation assessed as cleavage of pre-miRNA at 50 uM after 2.5 hrs by denaturating polyacrylamide gel electrophoresis
[7] = system: microRNA 21; assay: Inhibition of Dicer mediated [32P] pre-miRNA-21 (unknown origin) maturation assessed as cleavage of pre-miRNA at 1 to 100 uM after 2.5 hrs by denaturating polyacrylamide gel electrophoresis

## C#CCNC(=O)c1ccc2c(c1)C(=O)N(O)C2=O
[1]
  inhibition: inactive
[2]
  inhibition: inactive

## C[C@H](NC(=O)[C@H](CS)NC(=O)[C@H](C)NC(=O)[C@H](C)NC(=O)[C@H](CS)NC(=O)[C@@H](NC(=O)[C@@H](NC(=O)[C@H](C)NC(=O)CNC(=O)[C@H](C)NC(=O)CNC(=O)[C@@H](NC(=O)[C@H](C)NC(=O)[C@H](CS)Nn1cc(CNC(=O)c2ccc3c(c2)C(=O)N(O)C3=O)nn1)[C@@H](C)O)[C@@H](C)O)[C@@H](C)O)C(=O)O (H-[X1](X2)ATGAGATTCAACA-OH)
[3]
  IC50: 4.3 µM
[4]
  inhibition: Active
[5]
  Activity: Active
[6]
  inhibition: Active

## C[C@H](NC(=O)[C@H](CS)NC(=O)[C@H](C)NC(=O)[C@H](C)NC(=O)[C@H](CS)NC(=O)[C@@H](NC(=O)[C@@H](NC(=O)[C@H](C)NC(=O)CNC(=O)[C@H](C)NC(=O)CNn1cc(COc2ccc3c(c2)C(=O)N(O)C(=O)C3)nn1)[C@@H](C)O)[C@@H](C)O)C(=O)O (H-[X3]AGATTCAACA-OH)
[3]
  IC50: 0.5 µM
  inhibition: Dose-dependent effect

## C[C@H](NC(=O)[C@H](CS)NC(=O)[C@H](C)NC(=O)[C@H](C)NC(=O)[C@H](CS)NC(=O)[C@@H](NC(=O)[C@@H](NC(=O)[C@H](C)NC(=O)CNC(=O)[C@H](C)NC(=O)CNC(=O)[C@@H](Nn1cc(CNC(=O)c2ccc3c(c2)C(=O)N(O)C3=O)nn1)[C@@H](C)O)[C@@H](C)O)[C@@H](C)O)C(=O)O (H-[X4](X2)GAGATTCAACA-OH)
[6]
  inhibition: Active

## C[C@H](NC(=O)[C@H](CS)NC(=O)[C@H](C)NC(=O)[C@H](C)NC(=O)[C@H](CS)NC(=O)[C@@H](NC(=O)[C@@H](NC(=O)[C@H](C)NC(=O)CNC(=O)[C@H](C)Nn1cc(CNC(=O)c2ccc3c(c2)C(=O)N(O)C3=O)nn1)[C@@H](C)O)[C@@H](C)O)C(=O)O (H-[X5](X2)GATTCAACA-OH)
[6]
  inhibition: Active

## C[C@H](NC(=O)[C@H](CS)NC(=O)[C@H](C)NC(=O)[C@H](C)NC(=O)[C@H](CS)NC(=O)[C@@H](NC(=O)[C@@H](NC(=O)[C@H](C)NC(=O)CNC(=O)[C@H](C)NC(=O)CNC(=O)[C@@H](NC(=O)[C@H](C)NC(=O)[C@H](CS)Nn1cc(COc2ccc3c(c2)C(=O)N(O)C(=O)C3)nn1)[C@@H](C)O)[C@@H](C)O)[C@@H](C)O)C(=O)O (H-[X6]ATGAGATTCAACA-OH)
[3]
  IC50: 3.3 µM

## C[C@H](NC(=O)[C@H](CS)NC(=O)[C@H](C)NC(=O)[C@H](C)NC(=O)[C@H](CS)NC(=O)[C@@H](NC(=O)[C@@H](NC(=O)[C@H](C)NC(=O)CNC(=O)[C@H](C)NC(=O)CNC(=O)[C@@H](NC(=O)[C@H](C)NC(=O)[C@H](CS)Nn1cc(CCCC(=O)NCCOCCOCCNC(=O)c2ccc3c(c2)C(=O)N(O)C3=O)nn1)[C@@H](C)O)[C@@H](C)O)[C@@H](C)O)C(=O)O (H-[X7](X8)ATGAGATTCAACA-OH)
[7]
  inhibition: inactive
